These results are taken from PubChem BioAssay AID330 (DTP/NCI, 2004).

In this assay the test system is P388 leukemia ip, CD2F1 mice, survival T/C. The assay is described as follows: NCI In Vivo Anticancer Drug Screen. Data for tumor model P388 Leukemia (intraperitoneal) in CD2F1 (CDF1) mice. The following applies: endpoint: median survival time, higher = longer survival. The method in brief:
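Mice carrying the transplanted tumor received test compound or vehicle. Survival was recorded in each group, and the value is the treated-group measurement divided by that of the vehicle-treated control group.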

Where [1] appears, read: dose: 50.0 mg/kg/injection, schedule: Q01DX009 (ip), vehicle: saline.
The mark [2] stands for this setting: dose: 100.0 mg/kg/injection, schedule: Q01DX009 (ip), vehicle: saline.
Setting [3] is: dose: 50.0 mg/kg/injection, schedule: Q01DX005 (ip), vehicle: saline.
The mark [4] stands for this setting: dose: 100.0 mg/kg/injection, schedule: Q01DX005 (ip), vehicle: saline.
Setting [5] is: dose: 200.0 mg/kg/injection, schedule: Q01DX005 (ip), vehicle: saline.
The mark [6] stands for this setting: dose: 50.0 mg/kg/injection, schedule: Q04DX003 (ip), vehicle: saline.

Several values for one entry are separate records, joined by “and”; a condition that tells them apart may be missing. Equal values may be shown once. Toxic doses and inconclusive results are not listed.

On to `CCCCCCCCCCCCCCCC(=O)OCC1OC(n2ccc(N)nc2=O)C(O)C1O` (configuration not stated), for which the T/C reads like this: (dose: 0.29 mg/kg/injection, schedule: Q01DX009 (ip), vehicle: saline with Tween-80) 104 % of control; (dose: 0.44 mg/kg/injection, schedule: Q01DX009 (ip), vehicle: saline with Tween-80) 104 % of control; (dose: 0.66 mg/kg/injection, schedule: Q01DX009 (ip), vehicle: saline with Tween-80) 122 % of control; (dose: 0.88 mg/kg/injection, schedule: Q01DX009 (ip), vehicle: saline with Tween-80) 152 % of control; (dose: 1.32 mg/kg/injection, schedule: Q01DX009 (ip), vehicle: saline with Tween-80) 166 % of control; (dose: 2.0 mg/kg/injection, schedule: Q01DX009 (ip), vehicle: saline with Tween-80) 185 % of control. In addition, the T/C is 200 % of control (dose: 3.0 mg/kg/injection, schedule: Q01DX009 (ip), vehicle: saline with Tween-80); 163 % of control (dose: 3.13 mg/kg/injection, schedule: Q04DX003 (ip), vehicle: saline with Tween-80); 181 % of control and 195 % of control (dose: 6.25 mg/kg/injection, schedule: Q04DX003 (ip), vehicle: saline with Tween-80); 204 % of control (dose: 12.5 mg/kg/injection, schedule: Q04DX003 (ip), vehicle: saline sonified); 218 % of control and 222 % of control (dose: 12.5 mg/kg/injection, schedule: Q04DX003 (ip), vehicle: saline with Tween-80); 221 % of control and 345 % of control (dose: 15.0 mg/kg/injection, schedule: Q01DX009 (ip), vehicle: saline with Tween-80). The T/C was 154 % of control (dose: 20.0 mg/kg/injection, schedule: Q01DX001 (ip), vehicle: saline with Tween-80); 228 % of control and 538 % of control and 548 % of control (dose: 20.0 mg/kg/injection, schedule: Q01DX009 (ip), vehicle: saline with Tween-80); 344 % of control (dose: 24.0 mg/kg/injection, schedule: Q01DX009 (ip), vehicle: saline with Tween-80); 170 % of control and 539 % of control (dose: 25.0 mg/kg/injection, schedule: Q01DX009 (ip), vehicle: saline with Tween-80); 250 % of control (dose: 25.0 mg/kg/injection, schedule: Q04DX003 (ip), vehicle: saline sonified); 254 % of control (dose: 25.0 mg/kg/injection, schedule: Q04DX003 (ip), vehicle: saline with Tween-80). Besides, the T/C was 250 % of control and 256 % of control (dose: 31.75 mg/kg/injection, schedule: Q04DX002 (ip), vehicle: Klucel (hydroxypropylcellulose) (HPC)); 194 % of control and 264 % of control (dose: 32.0 mg/kg/injection, schedule: Q04DX003 (ip), vehicle: saline with Tween-80); 181 % of control (dose: 37.5 mg/kg/injection, schedule: Q01DX001 (ip), vehicle: saline with Tween-80); 204 % of control (dose: 40.0 mg/kg/injection, schedule: Q01DX001 (ip), vehicle: saline with Tween-80); 216 % of control and 350 % of control (dose: 48.0 mg/kg/injection, schedule: Q04DX003 (ip), vehicle: saline with Tween-80); 155 % of control (dose: 50.0 mg/kg/injection, schedule: Q01DX001 (ip), vehicle: Klucel (hydroxypropylcellulose) (HPC)). The T/C is, setting by setting: (dose: 50.0 mg/kg/injection, schedule: Q04DX003 (ip), vehicle: saline sonified) 250 % of control; (dose: 60.0 mg/kg/injection, schedule: Q03DX003 (ip), vehicle: saline with Tween-80) 536 % of control; (dose: 62.5 mg/kg/injection, schedule: Q04DX002 (ip), vehicle: Klucel (hydroxypropylcellulose) (HPC)) 263 % of control and 275 % of control; (dose: 70.0 mg/kg/injection, schedule: Q03DX003 (ip), vehicle: saline with Tween-80) 536 % of control; (dose: 72.0 mg/kg/injection, schedule: Q04DX003 (ip), vehicle: saline with Tween-80) 213 % of control and 511 % of control; (dose: 75.0 mg/kg/injection, schedule: Q01DX001 (ip), vehicle: saline with Tween-80) 181 % of control. Besides, the T/C reads like this: (dose: 80.0 mg/kg/injection, schedule: Q03DX003 (ip), vehicle: saline with Tween-80) 459 % of control; (dose: 90.0 mg/kg/injection, schedule: Q03DX003 (ip), vehicle: saline with Tween-80) 378 % of control; (dose: 125.0 mg/kg/injection, schedule: Q04DX002 (ip), vehicle: Klucel (hydroxypropylcellulose) (HPC)) 263 % of control and 275 % of control.
`C[n+]1c2ccccc2c(Cc2ccccc2)c2ccccc21`: the T/C by setting is: (dose: 12.5 mg/kg/injection, schedule: Q01DX005 (ip), vehicle: saline with Tween-80) 108 % of control; (dose: 25.0 mg/kg/injection, schedule: Q01DX005 (ip), vehicle: saline with Tween-80) 106 % of control; (dose: 50.0 mg/kg/injection, schedule: Q01DX005 (ip), vehicle: saline with Tween-80) 100 % of control and 94 % of control.
`O=C(O)CC(CC(=O)N(CCP(c1ccccc1)c1ccccc1)CCP(c1ccccc1)c1ccccc1)C(=O)O` (configuration not stated) (tested in a mixture with another compound): the T/C is 111 % of control under setting [1]; 111 % of control under setting [2]; 99 % of control (dose: 100.0 mg/kg/injection, schedule: Q04DX003 (ip), vehicle: Klucel (hydroxypropylcellulose) (HPC)); 112 % of control (dose: 200.0 mg/kg/injection, schedule: Q01DX009 (ip), vehicle: saline); 101 % of control (dose: 200.0 mg/kg/injection, schedule: Q04DX003 (ip), vehicle: Klucel (hydroxypropylcellulose) (HPC)); 97 % of control (dose: 400.0 mg/kg/injection, schedule: Q04DX003 (ip), vehicle: Klucel (hydroxypropylcellulose) (HPC)).
Consider `Cn1ncc2c(N(CCO)CCO)ncnc21`, for which the T/C is 100 % of control under setting [3], 100 % of control under setting [4] and 95 % of control under setting [5].
With `COC1(OC)C(c2ccc([N+](=O)[O-])cc2)C(C#N)(C#N)C1(OC)OC` (configuration not stated), the T/C is 100 % of control (dose: 60.0 mg/kg/injection, schedule: Q01DX005 (ip), vehicle: Klucel (hydroxypropylcellulose) (HPC)); 97 % of control (dose: 120.0 mg/kg/injection, schedule: Q01DX005 (ip), vehicle: Klucel (hydroxypropylcellulose) (HPC)); 99 % of control (dose: 240.0 mg/kg/injection, schedule: Q01DX005 (ip), vehicle: Klucel (hydroxypropylcellulose) (HPC)).
For the compound `OC(CCl)C(O)C(O)C(O)CCl` (configuration not stated), the T/C is, setting by setting: (dose: 100.0 mg/kg/injection, schedule: Q04DX003 (ip), vehicle: saline with Tween-80) 109 % of control; (dose: 200.0 mg/kg/injection, schedule: Q04DX003 (ip), vehicle: saline with Tween-80) 100 % of control; (dose: 400.0 mg/kg/injection, schedule: Q04DX003 (ip), vehicle: saline with Tween-80) 113 % of control.
For the compound `NC(N)=NOCC[C@@H](N)C(=O)O`, the T/C is 100 % of control under setting [3]; 99 % of control under setting [4]; 101 % of control under setting [5]; 91 % of control (dose: 400.0 mg/kg/injection, schedule: Q01DX005 (ip), vehicle: saline); 95 % of control (dose: 1000.0 mg/kg/injection, schedule: Q01DX001 (ip), vehicle: saline).
As for `CCCCOB(OCCCC)C(C)C(C#N)C#N` (configuration not stated), the T/C under setting [6] was 92 % of control; the T/C (dose: 100.0 mg/kg/injection, schedule: Q04DX003 (ip), vehicle: saline) is 92 % of control; the T/C (dose: 200.0 mg/kg/injection, schedule: Q04DX003 (ip), vehicle: saline) is 96 % of control.
For `COc1ccc2c(c1)sc1nc(Oc3ccccc3)nc(=O)n12`, the T/C is, setting by setting: (dose: 50.0 mg/kg/injection, schedule: Q01DX009 (ip), vehicle: Klucel (hydroxypropylcellulose) (HPC)) 105 % of control; (dose: 100.0 mg/kg/injection, schedule: Q01DX009 (ip), vehicle: Klucel (hydroxypropylcellulose) (HPC)) 108 % of control; (dose: 200.0 mg/kg/injection, schedule: Q01DX009 (ip), vehicle: Klucel (hydroxypropylcellulose) (HPC)) 100 % of control.
For `C=CCN(CC=C)Sc1cccc([N+](=O)[O-])c1`, the T/C reads like this: under setting [1], 109 % of control; under setting [2], 117 % of control.
Turning to `Cc1ccccc1NC(CCN1CCCCC1)=NC(C)(C)C`, the T/C (dose: 50.0 mg/kg/injection, schedule: Q01DX009 (ip), vehicle: saline with Tween-80) was 111 % of control; the T/C (dose: 100.0 mg/kg/injection, schedule: Q01DX009 (ip), vehicle: saline with Tween-80) is 103 % of control; the T/C (dose: 200.0 mg/kg/injection, schedule: Q01DX009 (ip), vehicle: saline with Tween-80) was 100 % of control.
Take `CC1CN1P(=O)(N1CC=CCC1)N1CC1C` (configuration not stated): the T/C runs as follows: (dose: 22.0 mg/kg/injection, schedule: Q04DX003 (ip), vehicle: saline) 100 % of control; (dose: 33.0 mg/kg/injection, schedule: Q01DX009 (ip), vehicle: saline) 150 % of control; (dose: 33.0 mg/kg/injection, schedule: Q04DX003 (ip), vehicle: saline) 113 % of control; under setting [6], 122 % of control; (dose: 75.0 mg/kg/injection, schedule: Q04DX003 (ip), vehicle: saline) 150 % of control.
